Assay results as given in a melting point compilation (Tetko et al.; mined from patent text by program, amines drawn as free bases though some values may be those of a salt).
Residues, ends and D or L forms follow the SMILES beside them. *: point of attachment. Boc = CC(C)(C)OC(=O)*; OBn = c1ccc(CO*)cc1; βAla = NCCC(=O)O

SMILES	melting point [°C]
COc1cc2c(cc1OC)CN(CCN(C)Cc1ccc(NC(=O)c3cccc4c(=O)c5cccc(OC)c5[nH]c34)cc1)CC2	202
NC(=O)c1ccc(-c2ccc(-c3ccn(C(CC(=O)O)C(=O)NC(CO)Cc4ccccc4)c3)cc2)cc1 (stereo not drawn)	218 to 220
O=C(C=Cc1ccc(Br)cc1)N1CCc2c([nH]c3ccccc23)C1c1ccc2c(c1)OCO2 (stereo not drawn)	188 to 190
COc1cc(C(C)C)c(Oc2cnc(N[C@H](C)CO)nc2N)cc1Cl	111 to 117
CCCCC(CC)Cn1c(O)c(N=Nc2ccc(S(=O)(=O)N(CCO)CCO)cc2)c(C)c(C#N)c1=O (stereo not drawn)	189 to 190
COc1c(C=O)ccc2c1oc1ccccc12	178 to 180
COc1cc2ncc(C#N)c(Nc3ccc(O)c(Cl)c3)c2cc1OC	230 to 232
COCC#Cc1cc(C(=O)OC)c(N)cc1C(F)(F)F	107 to 111
CCCc1c(OCc2ccc(CBr)cc2)ccc(C(C)=O)c1O	98 to 99
NS(=O)(=O)c1cnc(-c2cn(-c3cc(-c4ccc(Cl)cc4)cc(C(F)(F)F)n3)cn2)s1	263
CC(C)(C)OC(=O)Nc1nc(C(=CC(C)(C)C(=O)OCc2ccccc2)C(=O)O)cs1	175 to 177
Cc1ccc(S(=O)(=O)Nc2cccc3cc(C(=O)Nc4ccccc4)[nH]c23)cc1	247 to 248
CCCS(=O)(=O)N=C(NC)NCCSCc1[nH]cnc1C	73 to 74
CC(C)OC(=O)N1CCC(NC(=O)N2CCn3c(c(C(N)=O)c(C#N)c3C3CC3)C2)CC1	181 to 182
N#CC1=C(C2CCCC2)Nc2n[nH]cc2C1c1cccc(C#N)c1Br (stereo not drawn)	247
COc1ccc(C(=O)N2CCN(C(=O)C3=Cc4cc(OC)c(OC)cc4CC3)CC2)cc1OC	190 to 191
O=C1CCCN1c1nc(-n2ccnc2)c(I)c(C(F)(F)F)n1	195 to 197
COc1ccc(C(=O)C2=C(c3ccccc3)c3ccc(OC)cc3S2=O)cc1 (stereo not drawn)	191 to 192
NS(=O)(=O)c1cc(NC(=O)c2cnn3c(C(F)F)cc(-c4ccc(C(F)(F)F)cc4)nc23)c(Cl)s1	298
CC12CCC3c4ccc(C(=O)O)cc4CCC3C1CCC2C(=O)c1cccc2ccccc12 (stereo not drawn)	228
CC(C)(C)OC(=O)NCCC(=O)NC(CC(=O)OCc1ccccc1)C(=O)NC(Cc1ccccc1)C(=O)OCc1ccccc1 (stereo not drawn) ({Boc-βAla}-Asp(OBn)-Phe-OBn; configuration not given here)	124 to 125

SMILES	melting point [°C]
CCOC(=O)N1CCN(C(=O)c2sc(NC(C)=O)nc2CCc2ccc(NC(=N)N)cc2)CC1	180 to 182
C=CCc1ccc(C(NC(=O)OC(C)(C)C)C(=O)OC)cc1 (stereo not drawn)	60.6 to 62
O=C(c1cnccn1)N1CCCC(c2ccccc2)=N1	98 to 100
CN(C(=O)CCCOc1ccc([N+](=O)[O-])c(C=O)c1)C1CCCCC1	98 to 100
CN1CCC(N(C)c2nc(Nc3ccc(O)c(Cl)c3)nc(NC3CCCCCC3)n2)CC1	68
CC(C)(C(=O)O)c1ccc(C(=O)Nc2cn3cc(-c4ccsc4)ccc3n2)cc1	304 to 306
O=C(CCl)c1cc(Br)ccc1O	79
CC(C)C1COCc2nc3c(N)nc4c(c3n21)CCCC4 (stereo not drawn)	158 to 160
CCOCc1nc2c(N)nc3c(c2n1CC(C)(C)OCCS(C)(=O)=O)CCCC3	150 to 153
CC(C)(C)c1cc(C(=O)COc2ccc(C(=O)OCc3ccccc3)c(O)c2)cc(C(C)(C)C)c1O	123 to 124
O=C(Cc1cccc(C(=O)O)c1)Nc1cccc(/C=C/c2nc(C3CCC3)cs2)c1	208 to 209
NC(=O)OC[C@@H]1[C@H](NC(=O)/C(=N\OCC(=O)O)c2csc(N)n2)C(=O)N1S(=O)(=O)O	207
Cc1nc(N2CCc3ccccc3CC2)c(C#N)c(=O)n1CC#N	> 200
O=C(CCCN1CCOCC1)c1ccc2c(c1)Cc1cc(C(=O)CCCN3CCOCC3)ccc1S2	90.5 to 91.5
CS(=O)(=O)Nc1ccc2[nH]c(=O)n(CCCCN3CC=C(c4ccccc4)CC3)c(=O)c2c1	193 to 195
CCc1ncnc(O)c1I	191 to 192
Cc1cc(C)c(Nc2nc(Nc3ccc(C#N)cc3)ncc2N)c(C)c1	224 to 225
Cc1cc(N2CCOCC2)nc(N)c1N	97 to 108
CC(=NOCCOc1ccc(CC2SC(=O)NC2=O)cc1)c1ccc(-c2ccc(C(F)(F)F)cc2)cc1 (stereo not drawn)	165 to 166
CCOC(=O)c1ccc(Cn2cnc3cnccc32)cc1	156 to 157
COc1ccc2c(n1)c(C=O)c1n2Cc2ccccc2-1	229 to 230

More lines, now with the values ahead:

melting point [°C]	SMILES
74 to 76	CC(=O)c1nc(-c2ccccc2)oc1C
112 to 113	O=C(/C=C/c1cccc(Cl)c1)NC1CC1
149 to 152	COc1ccc2c(c1)C(CCNC(=O)C(F)(F)F)C1(CC2)Cc2ccccc2C1 (stereo not drawn)
135 to 136	Cn1cc(C(=O)NCc2ccc(Cl)cc2)c(=O)c2scc(COCC[Si](C)(C)C)c21
52 to 54	OC(CCCl)COc1ccccc1 (stereo not drawn)
95	O=C(O)c1ccc(F)c(Nc2ncccc2-c2ccncn2)c1
205 to 206	CCOC(=O)c1cccc2nc(C)n(Cc3ccc(-c4ccccc4-c4nnn[nH]4)cc3)c12
95	OCC1CN(Cc2ccccc2)CCc2c1[nH]c1ccccc21 (stereo not drawn)
150	O=C(CC(O)c1ccncc1)c1ccccc1O (stereo not drawn)
177 to 180	CS(=O)(=O)c1ccc(N2CC(CO)OC2=O)cc1 (stereo not drawn)
76 to 77	CC(C)CN(CC(C)C)C(=O)c1c(N)cccc1N
40 to 42	Cc1cc(C2=CC(C)(C)CC(C)(C)C2CO)ccc1F (stereo not drawn)
85.2	Cc1cc(N)cc(C)c1NC(=O)CN1CCN(CCCC(c2ccc(F)cc2)c2ccc(F)cc2)CC1CO (stereo not drawn)
287 to 290	Cn1c2cc(OCC(O)CO)ccc2c2c3c(c(-c4ccccc4Cl)cc21)C(=O)NC3=O (stereo not drawn)
171 to 172	CCOC(=O)C1Cc2ccc(NC)cc2NC1=O (stereo not drawn)
275 to 276	Cn1cnc(COc2nn3c(-c4cc(CO)on4)nnc3c3ccccc23)n1
170 to 173	CCOC(=O)c1[nH]c2cc(F)c(Cl)cc2c1Sc1cc(C)cc(C)c1
78 to 80	CCCC(=O)c1cnc2ccsc2c1Cl
161 to 163	CC1=C(N)C(C)C2CC(C)(CC3=CCN(c4ccc(-n5ccnc5)cc4)CC3)OC2=C1C (stereo not drawn)
140 to 147	Cc1ccc2c(Cl)ccnc2c1[N+](=O)[O-]
200 to 201	OC1CSC(Oc2cncc(-c3ccc(F)c(Cl)c3)c2)C(O)C1O (stereo not drawn)
> 260	Fc1ccccc1CN[C@H]1CCCN[C@H]1c1ccccc1 (relative stereo)
152	CC(C)CCNC1(c2ccccc2Cl)C(=O)Nc2ccc(Cl)cc21 (stereo not drawn)
184 to 185	COC(=O)c1ccc(=O)n(CCNC(=O)c2ccc(C)nc2)c1
188 to 190	NC(=O)c1cc(-c2ccc(OC(F)(F)F)cc2)c2c3c(ccc2c1)OCO3
145 to 147	COc1ccc(C(=O)c2ccc(OCc3nc(-c4ccccc4)sc3C)cc2)c(OC(C)(C)C(=O)O)c1
